This passage reports IC50 and inhibition results from ChEMBL document CHEMBL6182898, “Design, synthesis and bioevaluation of novel hydrazide derivatives as enhancers of immunotherapy and DNA-damage response in antitumor therapy” (Eur J Med Chem, 2025).

pIC50: −log10 of the molar value.

For data set [1], the system named is B16-F10. As to the kind of experiment: Antiproliferative activity against mouse B16-F10 cells incubated for 72 hrs by MTT assay. Particulars: B16-F10, 72 h. The data set is classed as functional, cell-based. In general terms: Tetrazolium dyes change colour on reduction, which living cells bring about.
Data set [2] has as its system SK-OV-3. As to the kind of experiment: cells. Particulars: Homo sapiens, time 72 hrs. The data set is classed as functional.
A further data set deals with T1, Histone deacetylase 8 (Homo sapiens, UniProt Q9BY41).
T1 sequence (Q9BY41 whole entry): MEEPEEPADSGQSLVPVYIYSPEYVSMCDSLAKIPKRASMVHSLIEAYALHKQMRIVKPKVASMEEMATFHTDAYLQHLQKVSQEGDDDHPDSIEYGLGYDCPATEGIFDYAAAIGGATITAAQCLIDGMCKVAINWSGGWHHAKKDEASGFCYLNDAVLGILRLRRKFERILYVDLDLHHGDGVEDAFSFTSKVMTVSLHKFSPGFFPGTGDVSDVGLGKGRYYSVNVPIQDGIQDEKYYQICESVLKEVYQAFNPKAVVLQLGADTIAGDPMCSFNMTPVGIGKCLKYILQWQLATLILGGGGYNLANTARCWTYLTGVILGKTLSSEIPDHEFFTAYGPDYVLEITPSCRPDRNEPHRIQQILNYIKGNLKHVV
As to the kind of experiment: Inhibition of HDAC8 (unknown origin).

Data set [3] is described as follows: Antiproliferative activity against human HK-2 cells incubated for 72 hrs by MTT assay.
Data set [4] deals with T2, Protein deacetylase HDAC6 (Homo sapiens, UniProt Q9UBN7).
T2 sequence (Q9UBN7 whole entry): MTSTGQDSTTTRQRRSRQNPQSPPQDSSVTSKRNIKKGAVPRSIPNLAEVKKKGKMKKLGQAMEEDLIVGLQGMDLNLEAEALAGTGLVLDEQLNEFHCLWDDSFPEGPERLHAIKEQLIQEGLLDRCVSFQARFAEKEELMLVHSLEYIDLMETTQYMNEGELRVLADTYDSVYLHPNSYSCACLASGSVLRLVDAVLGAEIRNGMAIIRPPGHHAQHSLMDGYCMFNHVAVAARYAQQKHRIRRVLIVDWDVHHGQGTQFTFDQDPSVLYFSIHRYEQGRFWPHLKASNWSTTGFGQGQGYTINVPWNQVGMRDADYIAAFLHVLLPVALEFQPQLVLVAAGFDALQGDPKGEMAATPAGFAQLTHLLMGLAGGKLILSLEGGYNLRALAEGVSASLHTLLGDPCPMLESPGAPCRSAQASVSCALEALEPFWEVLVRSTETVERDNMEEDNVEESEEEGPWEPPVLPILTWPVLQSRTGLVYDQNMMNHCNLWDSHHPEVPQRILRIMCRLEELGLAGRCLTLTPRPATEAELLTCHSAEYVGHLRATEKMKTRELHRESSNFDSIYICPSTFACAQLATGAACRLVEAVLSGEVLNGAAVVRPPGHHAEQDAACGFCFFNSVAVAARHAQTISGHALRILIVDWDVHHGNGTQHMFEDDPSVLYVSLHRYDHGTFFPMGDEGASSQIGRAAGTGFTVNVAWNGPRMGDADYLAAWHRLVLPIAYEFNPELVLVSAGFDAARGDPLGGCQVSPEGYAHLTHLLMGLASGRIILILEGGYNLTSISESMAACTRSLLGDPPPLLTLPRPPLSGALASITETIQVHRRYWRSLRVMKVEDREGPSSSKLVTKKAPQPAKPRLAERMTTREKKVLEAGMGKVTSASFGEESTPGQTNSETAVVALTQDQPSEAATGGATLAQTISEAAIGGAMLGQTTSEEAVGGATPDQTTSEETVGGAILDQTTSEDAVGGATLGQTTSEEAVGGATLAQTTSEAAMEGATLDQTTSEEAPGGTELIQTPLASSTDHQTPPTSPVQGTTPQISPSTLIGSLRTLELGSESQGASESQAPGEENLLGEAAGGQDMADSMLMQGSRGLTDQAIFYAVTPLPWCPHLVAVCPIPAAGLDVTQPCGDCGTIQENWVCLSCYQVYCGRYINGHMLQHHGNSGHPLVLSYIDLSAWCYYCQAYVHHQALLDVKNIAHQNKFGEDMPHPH
As to the kind of experiment: Inhibition of HDAC6 (unknown origin).

Data set [5] concerns SK-OV-3. Description: Antiproliferative activity against human SK-OV-3 cells incubated for 72 hrs by MTT assay. The data set is classed as functional, cell-based. Particulars: SK-OV-3, 72 h.
For data set [6], the system named is HCT-116. As to the kind of experiment: cells. The data set is classed as functional. The note with it: Homo sapiens, time 72 hrs.
Data set [7] concerns B16-F10. Description: cells. Format: functional. Particulars: Mus musculus, time 72 hrs.
Data set [8] relates to 4T1. As to the kind of experiment: Antiproliferative activity against mouse 4T1 cells incubated for 72 hrs by MTT assay. The note with it: 4T1, 72 h. Format: functional, cell-based.
Data set [9] concerns HCT-116. As to the kind of experiment: Antiproliferative activity against human HCT-116 cells incubated for 72 hrs by MTT assay. Particulars: HCT-116, 72 h. The data set is classed as functional, cell-based.
Data set [10] relates to 4T1. Description: cells. The data set is classed as functional. Particulars: Mus musculus, time 72 hrs.
Another data set deals with Histone deacetylase 1 (Homo sapiens, UniProt Q13547). As to the kind of experiment: Inhibition of HDAC1 (unknown origin).
Histone deacetylase 1, sequence (Q13547 whole entry): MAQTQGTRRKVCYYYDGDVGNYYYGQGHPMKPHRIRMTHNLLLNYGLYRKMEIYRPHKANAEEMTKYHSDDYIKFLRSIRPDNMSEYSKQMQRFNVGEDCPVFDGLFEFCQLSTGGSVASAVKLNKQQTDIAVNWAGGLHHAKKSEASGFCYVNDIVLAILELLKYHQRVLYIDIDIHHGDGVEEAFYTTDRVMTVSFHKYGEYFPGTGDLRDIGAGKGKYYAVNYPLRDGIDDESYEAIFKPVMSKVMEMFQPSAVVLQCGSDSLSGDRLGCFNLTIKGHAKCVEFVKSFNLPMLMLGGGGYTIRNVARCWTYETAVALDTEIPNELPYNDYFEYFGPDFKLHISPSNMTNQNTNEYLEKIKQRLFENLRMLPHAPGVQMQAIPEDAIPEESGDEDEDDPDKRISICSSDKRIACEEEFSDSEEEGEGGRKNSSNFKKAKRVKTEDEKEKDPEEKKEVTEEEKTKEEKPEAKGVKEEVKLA
A further data set deals with Histone deacetylase 3 (Homo sapiens, UniProt O15379). Description: Inhibition of HDAC3 (unknown origin).
Histone deacetylase 3, sequence (O15379 whole entry): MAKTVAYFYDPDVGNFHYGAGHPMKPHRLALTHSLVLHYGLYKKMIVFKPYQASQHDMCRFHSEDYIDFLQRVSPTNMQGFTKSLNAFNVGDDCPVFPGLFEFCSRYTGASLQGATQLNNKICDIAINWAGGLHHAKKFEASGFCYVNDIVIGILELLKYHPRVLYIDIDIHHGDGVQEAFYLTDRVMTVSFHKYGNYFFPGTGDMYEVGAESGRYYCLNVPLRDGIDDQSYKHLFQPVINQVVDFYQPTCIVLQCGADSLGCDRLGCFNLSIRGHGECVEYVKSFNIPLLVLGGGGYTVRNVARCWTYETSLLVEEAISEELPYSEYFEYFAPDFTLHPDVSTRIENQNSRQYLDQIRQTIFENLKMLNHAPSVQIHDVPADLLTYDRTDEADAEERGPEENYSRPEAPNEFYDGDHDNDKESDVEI
Data set [11] deals with K562. Description: cells. Format: functional. The note with it: Homo sapiens, time 72 hrs.
Data set [12] deals with K562. Description: Antiproliferative activity against human K562 cells incubated for 72 hrs by CCK8 assay. The data set is classed as functional, cell-based. The note with it: K562, 72 h.

With `CCCNNC(=O)c1ccc(NC(=O)c2cnc(-c3cc4ccc5cccc6ccc(c3)c4c56)s2)cc1`, the pIC50 with B16-F10 [1] was 4.88; against Histone deacetylase 8, under 5.00; in data set [4] it was under 5.00; in the data set on SK-OV-3 [5], 5.28; in the data set on 4T1 [8], 5.10; in the data set with HCT-116 [9] it was 5.07. The pIC50 is 5.87 on Histone deacetylase 1, 6.01 against Histone deacetylase 3 and 5.22 with K562 [12]. The inhibition at 10 µM in the data set on SK-OV-3 [2] is 77.5%; in the data set with HCT-116 [6] it was 69.3%; in the data set on B16-F10 [7] it was 61.7%; in the data set with 4T1 [10] it was under 20%; in the data set with K562 [11], under 50%. In data set [3], it took 11.2 µM to reach half-maximal inhibition (IC50 at 72 h).

For `CCCNNC(=O)CCCCCCNC(=O)c1cnc(-c2ccc3ccccc3c2)s1`, the pIC50 was 4.95 in the data set on B16-F10 [1]; under 5.00 at Histone deacetylase 8; under 5.00 in data set [4]; 5.35 in the data set on SK-OV-3 [5]; 4.84 with 4T1 [8]; 5.38 in the data set with HCT-116 [9]. The pIC50 is 5.49 against Histone deacetylase 1, 6.26 against Histone deacetylase 3 and 5.57 in the data set on K562 [12]. For the same molecule, the inhibition at 10 µM in the data set with SK-OV-3 [2] was 81.5%; in the data set on HCT-116 [6], 94.7%; in the data set on B16-F10 [7], 57.6%; in the data set on 4T1 [10] it was under 20%; with K562 [11], under 50%. Besides, in data set [3], the midpoint of inhibition, the IC50 at 72 h, lay at 10.8 µM.

On to `CCCNNC(=O)CCCCCCNC(=O)c1cnc(-c2ccc(Br)cc2)s1`, for which the pIC50 was 5.27 with B16-F10 [1]; under 5.00 against Histone deacetylase 8; under 5.00 in data set [4]; 4.89 with SK-OV-3 [5]; 4.84 with 4T1 [8]; 6.10 in the data set on HCT-116 [9]. Also, the pIC50 against Histone deacetylase 1 was under 5.30; on Histone deacetylase 3, 5.46; in the data set on K562 [12], 5.09. In addition, the inhibition at 10 µM with SK-OV-3 [2] is 60.8%; in the data set with HCT-116 [6], 59.3%; in the data set with B16-F10 [7] it was 50.7%; in the data set with 4T1 [10], 53%; with K562 [11], under 50%. For the same molecule, in [3], half-maximal inhibition (IC50 at 72 h) was put at 13.9 µM.

Take `CCCNNC(=O)CCCCCNC(=O)c1cnc(-c2ccc(Oc3ccccc3)cc2)s1`: the pIC50 was 4.96 in the data set with B16-F10 [1]; under 5.00 against Histone deacetylase 8; under 5.00 in data set [4]; 5.35 with SK-OV-3 [5]; 4.98 in the data set on 4T1 [8]; 5.47 in the data set with HCT-116 [9]. Further, the pIC50 against Histone deacetylase 1 was under 5.30; at Histone deacetylase 3 it was 5.80; in the data set with K562 [12], 5.11. In addition, the inhibition at 10 µM is 68.6% with SK-OV-3 [2]; 82.6% in the data set with HCT-116 [6]; under 50% in the data set with B16-F10 [7]; 33.8% in the data set on 4T1 [10]; 73.1% with K562 [11]. This molecule registered an IC50 at 72 h in data set [3] of 10.8 µM.

For `CCCNNC(=O)CCCCCCNC(=O)c1cnc(-c2ccc(F)cc2F)s1`, the pIC50 in the data set on B16-F10 [1] is 5.32; on Histone deacetylase 8, under 5.00; in [4] it was under 5.00; in the data set on SK-OV-3 [5], 5.10; in the data set on 4T1 [8] it was 4.89; with HCT-116 [9] it was 5.32. The pIC50 against Histone deacetylase 1 is 6.05; against Histone deacetylase 3, 6.14; in the data set with K562 [12], 5.25. Further, the inhibition at 10 µM with SK-OV-3 [2] is 82.1%; in the data set with HCT-116 [6], 79.7%; in the data set with B16-F10 [7] it was 56%; with 4T1 [10], under 20%; with K562 [11] it was 70.5%. In addition, half-maximal inhibition in [3] (IC50 at 72 h) was put at 12.2 µM.

For the molecule `CCCNNC(=O)CCCCCCNC(=O)c1cnc(-c2ccc(Oc3ccccc3)cc2)s1`, the pIC50 in the data set on B16-F10 [1] is 4.83; at Histone deacetylase 8, under 5.00; in data set [4], under 5.00; with SK-OV-3 [5], 5.06; in the data set with 4T1 [8], 4.93; in the data set on HCT-116 [9], 5.97. Further, the pIC50 against Histone deacetylase 1 was under 5.30; against Histone deacetylase 3 it was 5.73; in the data set on K562 [12] it was 5.38. The inhibition at 10 µM was 76% with SK-OV-3 [2]; 73.1% in the data set on HCT-116 [6]; 58% in the data set with B16-F10 [7]; 40.8% in the data set with 4T1 [10]; under 50% with K562 [11]. Moreover, 14.1 µM corresponded to half-maximal inhibition in data set [3] (IC50 at 72 h).

As to `CCCNNC(=O)c1ccc(NC(=O)c2cnc(-c3ccccc3C)s2)cc1`, the negative-log IC50 (pIC50) in the data set on B16-F10 [1] is 4.92; at Histone deacetylase 8, under 5.00; in data set [4] it was under 5.00; in the data set on SK-OV-3 [5], 5.25; in the data set on 4T1 [8] it was 4.84; with HCT-116 [9] it was 5.46. Also, the pIC50 is 5.79 on Histone deacetylase 1, 6.06 at Histone deacetylase 3 and 5.45 with K562 [12]. Also, the inhibition at 10 µM with SK-OV-3 [2] was 56.2%; in the data set with HCT-116 [6], 67.1%; in the data set on B16-F10 [7] it was under 50%; in the data set on 4T1 [10], 26.4%; in the data set with K562 [11], 73.2%. The molecule also had an IC50 at 72 h in data set [3] of 11.9 µM.

One may read the pIC50 as −log10 of the IC50, conventionally taken in molar units. Low readings indicate a large IC50, high ones a small IC50. As usually defined, the inhibition is the share of the control response that was lost under treatment. The IC50 is the concentration that inhibits the measured activity by half. Read a high IC50 as a need for much substance.
